US7214663B2, “Tripeptide prodrug compounds” (Medarex, Inc., priority 2001, dated 2007)

Key:
[1] = SD-MTD studies, 60 days, normal mice (Example 14); conditions: mouse, in vivo; for MTD: Table 12, re-analyzed data and new data
Method: In the single dose Maximum Tolerated Dose (SD-MTD) studies, groups of normal mice were administered intravenous bolus doses of the prodrug. The mice were observed daily for 60 days and body weights measured twice weekly. The SD-MTD was estimated to be equal to the highest dose that produced no death in mice after 60 days.

[2] = test system: human colon carcinoma (LS174T); assay: LS174T xenograft efficacy study; conditions: doxorubicin-insensitive model
Method: Healthy young female nude mice were subcutaneously implanted with chunks of LS174T. […] Tumor size and body weights were measured twice weekly for up to 60 days.

[3] = in vivo; conditions: female, ICR, mouse, iv
Method: Plasma was obtained from three individual animals in each group at 5 minutes, 1, 2, 4, or 6 hr.

[4] = test system: human colon carcinoma (HT-29); assay: HT-29 xenograft efficacy study
Excerpt: Healthy young male nude mice were subcutaneously injected with 5 million of HT-29 cells.

[5] = Metabolism and clearance of Suc-Met-Ala-Leu-Dox in mice (plasma, urine); format: in vivo, mouse
Method: Plasma samples were obtained at 1 or 4 hours, and urine was collected at 2 and 24 hours post administration. Levels of the prodrug and metabolites were measured by LC-MS with UV detection of doxorubicin.

[6] = in vivo; conditions: female, mouse, iv
[7] = Metabolism and clearance of Suc-Leu-Ala-Leu-Dox in mice (plasma, urine); format: in vivo, mouse
Method: Plasma samples of 100 μl were transferred to microcentrifuge tubes (1.5 mL) and an internal standard of daunorubicin (20 μL at 0.5 mg/ml) was added together with acetonitrile (400 μl). The tubes were capped and briefly vortexed followed by centrifugation at 14,000 rpm. 420 μl from each tube was removed and dried in vacuo. Each sample was reconstituted in 65 μl 20 mM aqueous ammonium formate (AF) pH 4.5 buffer containing acetonitrile (20%) prior to analysis by reverse phase liquid chromatography in combination with tandem mass spectrometry (LC MS/MS).
Urine was collected at 2 and 24 hours post administration from pairs of mice in metabolic cages. Urine samples were diluted with AF buffer containing acetonitrile (20%) to give a target analyte concentration within the practical range of the LC MS/MS assay. 30 μl of each diluted sample was placed in a micro centrifuge tube (1.5 ml) and an internal standard of daunorubicin (20 μL at 0.5 mg/ml) was added together with 50 μl of AF buffer containing acetonitrile (20%). Each sample was then analyzed by LC MS/MS.
An Agilent HP1100 HPLC with DAD detector and Chemstation software was coupled to a PE Sciex API 365 mass spectrometer with an electrospray ion source. HPLC was performed on a TSK-Gel Super ODS, […], 4.6×50 mm (TosoHaas) reversed phase column equipped with a […] C18 guard disc (Higgins Analytical) and stainless steel frit (Upchurch Scientific). Chromatography was performed at room temperature. The flow rate was 0.5 ml/min. Injection volume was 50 μl. Gradient elution was performed using a mobile phase of AF buffer with increasing amounts of acetonitrile. The API 365 was operated at 365° C. in a multiple reaction monitoring mode, set to monitor specific analyte parent-daughter ion pairs. Integration of chromatograms was performed by MacQuan software (PE Sciex) and quantitation of each analyte obtained by comparison to previously obtained calibration curves. Daunorubicin was used as an internal standard in all cases.

[8] = test system: Namalwa cells (CD10pos); assay: cells; format: cell-based, human; conditions: 24 hours, 3H-thymidine
Method: (§1) In addition to LNCaP, a number of B-cell lines, such as Ramos and Namalwa cells express CD10 (CD10^pos cells).
(§2) Suspension cells, BALL-1, Ramos and Namalwa cells were cultured in RPMI media containing 10% heat inactivated fetal calf serum (FCS). On the day of the study, the cells were collected, washed and resuspended at a concentration of 0.5×10^6 cells/ml in RPMI containing 10% FCS. 100 μl of cell suspension was added to 96 well plates. […] Finally 10 μl of a 100 μCi/ml ^3H-thymidine was added per well and the plates were incubated for 24 hours. The plates were harvested using a 96 well Harvester (Packard Instruments) and counted on a Packard Top Count counter. Four parameter logistic curves were fitted to the ^3H-thymidine incorporation as a function of drug molarity using Prism software to determine IC50 values.

[9] = test system: tumor-bearing nude mice; assay: Repeat-dose tolerability / repeat dose MTD in tumor bearing mice; format: in vivo, mouse; conditions: Table 11, five doses at five day or 1 week intervals
Excerpt: (§3) In one study, one animal in each dose group (n=8) was terminated as a possible drug-related toxicity death late in the study, at Days 58 and 57 in the low and high dose-groups respectively. The safety of the compound was evidenced by little body weight loss in either the high or low dose groups (less than 5% of the initial weight) during the 60-day observation period, in surviving animals (FIG. 14). In the other study, both the high and low dose were well tolerated. Only one animal in the high dose group (n=10) had over 15% of body weight loss at the end of the study (Day 61).
(§4) In repeat-dose studies in tumor bearing mice, groups of ten mice were dosed with various amounts of prodrug for a total of five doses at either five day or 1 week intervals. […] Thus, the prodrugs permit a much greater amount of therapeutic agent to be delivered to the body as a whole and thus to the vicinity of the target cell.

[10] = Single dose Maximum Tolerated Dose (SD-MTD) study, 49 days, ICR mice (Examples 5 and 6); conditions: mouse, in vivo, iv, SD-MTD (mg/kg), intravenous bolus, ICR mice, Day 49
Method: (§5) In a second single dose Maximum Tolerated Dose (SD-MTD) study, groups of five normal ICR mice were administered intravenous bolus doses of Suc-Leu-Ala-Leu-Dox. The mice were observed daily for 49 days and body weights measured twice weekly.
(§6) In a second single dose Maximum Tolerated Dose (SD-MTD) study, groups of five normal ICR mice were administered intravenous bolus doses of Suc-Leu-Ala-Gly-Dox. The mice were observed daily for 49 days and body weights measured twice weekly.

[11] = test system: normal ICR mice; assay: as above
Method: as §5, §6

[12] = test system: Ramos cells (CD10pos); format: cell-based, human; conditions: 24 hours, 3H-thymidine
Method: as §1, §2

[13] = test system: BALL-1 cells (CD10neg); format: cell-based, human; conditions: Ball-1 (CD10neg), 24 hours, 3H-thymidine
Method: as §1, §2

[14] = test system: LNCaP (prostate carcinoma) cells; conditions: 48 hours, 3H-thymidine incorporation
Method: (§7) Adherent cells, LNCaP (prostate carcinoma), HT-29 (colon carcinoma) and PC-3 (prostate carcinoma), were cultured in DMEM media containing 10% heat inactivated fetal calf serum (FCS). On the day of the study the cells were detached from the plate with a trypsin solution. The collected cells were washed and resuspended at a concentration of 0.25×10^6 cells/ml in DMEM containing 10% FCS. 100 μl of cell suspension were added to 96 well plates and the plates were incubated for 3 hours to allow the cells to adhere. […] The plates were then incubated for 24 hours, pulsed with 10 μl of a 100 μCi/ml ^3H-thymidine and incubated for an additional 24 hours (total incubation time 48 hours). The plates were harvested using a 96 well Harvester (Packard Instruments) and counted on a Packard Top Count Counter. Four parameter logistic curves were fitted to the ^3H-thymidine incorporation as a function of drug molarity using Prism software to determine IC50 values.
(§8) Prostate carcinoma cells, LNCaP and PC-3 cells or colon carcinoma cells HT-29, were incubated with increasing concentration of the indicated compounds for 48 hours and cellular proliferation was measured using the ^3H-thymidine assay.

[15] = test system: PC-3 (prostate carcinoma) cells; conditions: PC-3, 48 hours, 3H-thymidine incorporation
Method: as §7, §8

[16] = test system: HT-29 (colon carcinoma) cells; conditions: HT29, 48 hours, 3H-thymidine incorporation
Method: as §7, §8

[17] = Repeat-dose tolerability / repeat dose MTD in tumor bearing mice; format: in vivo, mouse; conditions: mouse, in vivo, Table 12, re-analyzed
Excerpt: as §3, §4

[18] = 4.0 mg/kg every 7 days for 5 doses
[19] = after single intravenous 120 mg/kg Suc-Met-Ala-Leu-Dox
[20] = after single intravenous 117 mg/kg Suc-Leu-Ala-Leu-Dox

COc1cccc2c1C(=O)c1c(O)c3c(c(O)c1C2=O)C[C@@](O)(C(=O)CO)C[C@@H]3O[C@H]1C[C@H](N)[C@H](O)[C@H](C)O1 [Doxorubicin, reference compound]
MTD at 60 days ([1]; Table 11, doses as first stated, intravenous bolus, 60 days): 4 mg/kg | anti-tumor activity in LS174T xenograft [2]: virtually inactive | AUC [3]: 3.3 µM·h | Calculated Mean Day of Survival [4, 18]: 30.0 ± 3.7 days | Extension of Mean Day of Survival over controls [4, 18]: 16.7% | Number of Long Term Survivors [4, 18]: 0/10 | Calculated Mean Day of Survival ([4]; 4.0 mg/kg every 7 days for 5 doses, listed as doxorubicin): 30 days | Urine 2 hr, percent of administered dose [5, 19]: 0.30% | Urine 24 hr, percent of administered dose [5, 19]: 0.61% | Plasma 1 hr, percent of administered dose ([5]; female, mouse, in vivo, iv, 120 mg/kg, 1 h): 0.002% | Plasma 4 hr, percent of administered dose ([5]; female, mouse, in vivo, iv, 120 mg/kg, 4 h): 0.002% | MTD at 28 days [6]: 4 to 8 mg/kg | Urine 2 hr, percent of administered dose [7, 20]: 0.05% | Urine 24 hr, percent of administered dose [7, 20]: 0.15% | Plasma 1 hr, percent of administered dose ([7]; female, mouse, in vivo, iv, 117 mg/kg, 1 h): 0.002% | Plasma 4 hr, percent of administered dose ([7]; female, mouse, in vivo, iv, 117 mg/kg, 4 h): 0.000% | IC50 ([8]; Homo sapiens): 0.01 µM | Optimal Efficacy Repeat Dose (mg/kg), value in parentheses (doxorubicin equivalent dose) [9]: 4 (4) mg/kg | Optimal Efficacy Repeat Dose (mg/kg) ([9]; tumor bearing mice, 60 days): 4 (4) mg/kg

COc1cccc2c1C(=O)c1c(O)c3c(c(O)c1C2=O)C[C@@](O)(C(=O)CO)C[C@@H]3O[C@H]1C[C@H](NC(=O)CNC(=O)[C@H](C)NC(=O)[C@H](CC(C)C)NC(=O)CCC(=O)O)[C@H](O)[C@H](C)O1 [Suc-Leu-Ala-Gly-Dox]
MTD [10]: ≥ 220 mg/kg | acute toxicity, within 24 hours ([11]; any dose level): no acute toxicity | mortalities, morbidity or significant body weight loss over the 49 day study ([11]; any dose level up to 220 mg/kg): no mortalities, morbidity or significant body weight loss | SD-MTD Molar Ratio (Dox =) ([11]; molar basis versus doxorubicin alone): 8.8 | MTD ([1]; SD MTD (mg/kg), value in parentheses: doxorubicin equivalent dose): > 141 mg/kg | MTD ([1]; read-out: SD MTD): > 220 mg/kg | AUC ([3]; 100 umol/kg): 310 µM·h | Toxicity (Weight Loss > 20%) ([4]; 40 mg/kg every 7 days for 5 doses): 0/7 | Toxicity (Weight Loss > 20%) ([4]; 67 mg/kg every 7 days for 5 doses): 0/7 | IC50 [12]: 22.7 µM | IC50 [13]: 23.3 µM | IC50 [14]: 15 µM | IC50 [15]: 39 µM | IC50 [16]: 32 µM | IC50 [8]: 17.3 µM | MTD ([17]; Repeat Dose MTD (mg/kg), value in parentheses: doxorubicin equivalent dose, Q 5 D × 5 or Q 7 D × 5): > 70 mg/kg | MTD ([17]; Q 5 D × 5 or Q 7 D × 5 as given per compound, read-out: Repeat Dose MTD): > 110 mg/kg
